Experimental data reported in paper PMC7539012, “Hyperphosphorylated tau aggregation and cytotoxicity modulators screen identified prescription drugs linked to Alzheimer's disease and cognitive functions” (Scientific Reports, 2020).
Counter-ions that a name gives are not always drawn. Like-named read-outs stand apart in the source and are kept apart here.

How the values were obtained:
[1] = target: T1, p-tau (Homo sapiens, UniProt P10636); assay: p-tau aggregation assay, dose response (ThS fluorescence, inducer-free); format: biochemical; conditions: for effect on p-tau aggregation (16-h net change of ThS fluorescence): 6.25-150 µM benzodiazepine
T1 construct: made in house; host or cells: E. coli (PIMAX system)
T1 sequence (P10636 1-412 isoform P10636-7): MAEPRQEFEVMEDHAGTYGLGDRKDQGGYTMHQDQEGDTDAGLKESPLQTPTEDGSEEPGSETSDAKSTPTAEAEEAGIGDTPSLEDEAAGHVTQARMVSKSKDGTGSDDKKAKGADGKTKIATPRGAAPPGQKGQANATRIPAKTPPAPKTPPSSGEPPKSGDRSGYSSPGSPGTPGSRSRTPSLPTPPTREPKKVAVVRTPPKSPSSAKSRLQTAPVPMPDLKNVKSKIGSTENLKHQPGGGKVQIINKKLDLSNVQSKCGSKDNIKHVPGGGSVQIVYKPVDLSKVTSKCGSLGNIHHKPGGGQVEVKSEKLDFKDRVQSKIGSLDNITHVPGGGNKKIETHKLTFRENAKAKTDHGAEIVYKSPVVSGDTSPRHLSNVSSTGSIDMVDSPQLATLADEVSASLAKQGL
Method: Aggregation of 6-µM p-tau under the influence of 30 µM of each of the library compounds or a DMSO vehicle control was monitored in 384-well plates every 10 min for ThS fluorescence changes over 16 h. To assess the quality of the high-throughput p-tau aggregation reactions, we used the T0 and T16hr ThS fluorescence units of no-compound control reactions to calculate the Z′-factor and coefficient of variation (CV), two commonly used criteria for robustness of high-throughput screens (HTS)[62]. A Z′-factor greater than 0.5 and CV smaller than 10% indicate robustness. […] To identify compounds with significant p-tau aggregation modulation, the net change of ThS fluorescence was calculated from all reactions (see Supplemental Table 1 for complete listing).
Aggregation of 6 µM of p-tau was done in the presence of the indicated concentrations of either compound. […] P-tau aggregation reactions with the C291S C322S (C/S) mutant p-tau were done in the presence of the indicated amounts of either compound. Shown are net changes of ThS over 16 h.
Given the tremendous socioeconomical burdens of AD, measures that prevent or delay the onset of the devastating neurodegeneration of AD will be highly impactful. If hyperphosphorylated tau-inflicted neuronal damages are an underpinning for AD and other tauopathies, enhancers of p-tau aggregation (PTAEs) may be risk factors for neurodegeneration. […] Prednicarbate is a synthetic corticosteroid for dermatological use, and carmofur (1-hexylcarbamoyl-5-fluorouracil) is an anti-neoplastic pyrimidine analogue. […] BZDs are among the most widely prescribed medication, in particular to the elderly, for depression and insomnia[70],[71]. We hypothesized that certain BZDs acted as a PTAE to potentiate p-tau aggregation and cytotoxicity. […] We therefore randomly picked nine prescription BZDs for p-tau aggregation assessment (Fig. 6; see Supplemental Fig. 5 for chemical structures). To 6-µM p-tau aggregation reactions, increasing doses of each of these BZDs were added.
Prednicarbate, a synthetic steroid, served as a PTAE control (yellow bars).
The aggregation assays over the course of this project have been done with multi-plate readers from different sources.
A common mix of 6 µM p-tau, 20 mM Tris pH 7.4, 1 mM DTT, and 20 µM ThS was assembled and dispensed to 384-well low-volume plates (10 µl per well) using BioTek EL406 Washer, followed by the addition of 150 nl of the Prestwick Library compounds (final concentration of 30 µM per well) or DMSO in a Beckman Coulter Biomek FX^P workstation. Each plate was covered with an Optical Adhesive Film and incubated at 37 °C for about 10 min. ThS fluorescence was measured every 10 min at 440/490 nm for 16 h by Biotek Synergy Neo Plate Reader. […] The real-time kinetics of ThS signals were collected using Gen5 software.

[2] = tested on: SH-SY5Y cells; assay: cells
Method: (see below). […] PI is excluded by living cells, but diffuses into dead cells where it binds nucleic acid and emits fluorescence. FDA/PI differential staining thus provides a quantitative assessment of cellular viability. The blue curves in Fig. 4a,b depict the cellular viability after treatment with 0–0.8 µM of p-tau.
P-tau (without pre-aggregation) and compounds were added together to cells. Cell viability was quantified by FDA and PI differential staining 24 h later. […] Cellular viability was characterized as above and plotted against the compound concentration. Trend lines in panels (a)–(c) were obtained with the dose response curve fitting function of the software Origin (Origin Pro 8, OriginLab Corporation, Northampton, MA, USA). (d) Representative images of apoptotic cells after treatment of p-tau. SH-SY5Y cells were treated with 0.6 µM of p-tau for 12 h before harvesting for annexin V and PI staining. […] The percentage of apoptotic SH-SY5Y cells was quantified by annexin V and PI double staining of cells receiving 12 h of the indicated treatment under each column in the graph. Error bars are standard deviations; n = 3.
SH-SY5Y cells were treated with 0–0.6 µM of p-tau in conjunction with varying doses of nitrazepam, prazepam or devazepide. […] The red dotted lines indicate 50% viability. Curve fitting was done with the dose–response fitting function of the software Origin (version 8, OriginLab Inc.). The number in parentheses represents the concentration (in µM) of the indicated compound.
Cell viability assays were tested according to reference[60] with modifications. PTAIs were typically added to cells along with (Fig. 4) or after p-tau was added to cells (Fig. 5). For PTAEs, 10 × concentration of p-tau and the test compounds were assembled for pre-aggregation (without heparin or ThS) for 48 h before adding 10 µl to 100 µl of cells in 96-well plates. Twenty-four or 48 h after the addition of protein/compound, cells were trypsinized and transferred to microcentrifuge tubes, and pelleted at 1000 × g for 5 min at room temperature for FDA, PI, annexin V, and ThS staining. For PI/ThS double staining, cell pellets were resuspended in 20 mM Tris, pH7.4 buffer and incubated with 100 µM ThS for 5 min at room temperature. 5-µg/ml propidium iodide was then added to cell suspension for observation under a microscope.
Supplemental Figure 2. […] SH-SY5Y cells were treated with the indicated concentrations p-tau and compounds (in µM) for 20 hours before FDA/PI differential staining and microscopic quantification. […] 0.2 or 0.4 µM of p-tau and 30 µM of each compound were pre-incubated in aggregation reactions for 24 hours before the 20-hr cell treatment and cytotoxicity quantification. FDA and PI dual staining was performed to measure cellular viability. SH-SY5Y cells Compounds in panel (a) were added to cells along with p-tau without pre-incubation.

[3] = tested on: T2, 1N4R p-tau; assay: p-tau aggregation modulator screen of 1280-compound library (ThS fluorescence net change over 16 h); format: biochemical; parameters: key to PTAI>3SD: *: PTAI>3SD
T2 construct: made in house; host or cells: E. coli (PIMAX system)

[4] = tested on: K18 P301L; parameters: method as in earlier work; conditions: 15 µM K18 P301L, 40 µM heparin; ref Probe Report ML103, National Center for Biotechnology Information, 2010; read-out: AC50 for tau aggregation inhibition; cited from earlier work
[5] = tested on: women; conditions: cited from earlier work
[6] = tested on: C291S C322S (C/S) and C291A C322A (C/A) mutant p-tau; assay: aggregation of C/S or C/A mutant p-tau (ThS net change); format: biochemical; conditions: increasing doses of compound
Method: Figure 3 R-(−)-apomorphine and raloxifene are p-tau aggregation inhibitors (PTAIs) that act independently of the redox state of p-tau. (a) and (b) P-tau aggregation inhibition dose response curves of R-(−)-apomorphine and raloxifene. Aggregation of 6 µM of p-tau was done in the presence of the indicated concentrations of either compound. (c) Both R-(−)-apomorphine and raloxifene act independently of the two cysteine residues of p-tau. P-tau aggregation reactions with the C291S C322S (C/S) mutant p-tau were done in the presence of the indicated amounts of either compound. Shown are net changes of ThS over 16 h.
Many “hits” from prior tau-based HTS were non-selective redox modulators, due most likely to the susceptibility of unmodified tau fibrils to the oxidation of two cysteine residues of tau, C291 and C322. Because p-tau aggregation was not affected by changing the two cysteine residues to alanine or serine, we suspected that R-(−)-apomorphine and raloxifene would act independently of these two cysteine. […] By itself, the C/S p-tau gained 130 units of ThS fluorescence over the course of the aggregation reaction (blue column). With increasing doses of either compound, the net gain of ThS fluorescence decreased progressively. […]

[7] = flag: p-tau aggregation inhibitor, ThS net change more than 3 SD from mean
[8] = library screen, ThS fluorescence net change over 16 h with p-tau
[9] = 50 or 200 µM compound, heparin-free
[10] = SH-SY5Y, p-tau pre-incubated with compound

For `O=C1CN=C(c2ccccc2)c2cc(Cl)ccc2N1` [nordiazepam], the “effect on p-tau aggregation (16-h net change of ThS fluorescence)” value ([1]; 6 µM p-tau) was “did not”.
With `CN1C(=O)C(O)N=C(c2ccccc2)c2cc(Cl)ccc21` (stereo not shown) [temazepam] the “effect on p-tau aggregation (16-h net change of ThS fluorescence)” value ([1]; 6 µM p-tau) was “enhanced p-tau aggregation in a dose-dependent manner”.
For `CCC(C)n1ncn(-c2ccc(N3CCN(c4ccc(OCC5COC(Cn6cncn6)(c6ccc(Cl)cc6Cl)O5)cc4)CC3)cc2)c1=O` (stereo not shown) [Itraconazole, itraconazole, reference compound], the EC50 ([1]; 6 µM p-tau, ThS fluorescence) was 10.6 µM, the p-tau cytotox [2] was “No change” and the “PTAI>3SD” value [3, 7] was “*”. For the same molecule, the ThS net change [3, 8] was -31.
In the case of `COC(=O)C1=C(C)NC(C)=C(C(=O)OCC(C)C)C1c1ccccc1[N+](=O)[O-]` (stereo not shown) [Nisoldipine, nisoldipine, reference compound], the p-tau cytotox [2] is reported as “No change”, the “PTAI>3SD” value [3, 7] is reported as “*” and the ThS net change [3, 8] is reported as -29.
For `Oc1c(Cl)cc(Cl)c(Cl)c1Cc1c(O)c(Cl)cc(Cl)c1Cl` [Hexachlorophene, hexachlorophene], the EC50 [1] was 17.8 µM, the “PTAI>3SD” value [3] was “*” and the ThS net change [3] was 74.
With `COC(=O)C1=C(C)NC(C)=C(C(=O)OC)C1c1ccccc1[N+](=O)[O-]` [Nifedipine, nifedipine, reference compound] the EC50 ([1]; 6 µM p-tau, ThS fluorescence) was 24.3 µM, the “PTAI>3SD” value [3, 7] was “*” and the ThS net change [3, 8] was -97.
With `CC(C)/N=c1\cc2n(-c3ccc(Cl)cc3)c3ccccc3nc-2cc1Nc1ccc(Cl)cc1` [Clofazimine, clofazimine, reference compound] the EC50 ([1]; 6 µM p-tau, ThS fluorescence) was 68 µM, the p-tau cytotox [2] was “No change” and the “PTAI>3SD” value [3, 7] was “*”. It also gave a ThS net change [3, 8] of -196.
With `O=C1Nc2ccc(Cl)cc2C(c2ccccc2)=NC1O` (stereo not shown) [oxazepam] the “effect on p-tau aggregation (16-h net change of ThS fluorescence)” value ([1]; 6 µM p-tau) was “did not”.
In the case of `CCOC(=O)c1nn(-c2ccccc2)c(=O)c2c(N)scc12` [compound 1], the “effect on p-tau aggregation” value [1, 9] is listed as “no effect on p-tau aggregation” and the AC50 [4] is listed as 3.3 ± 0.2 µM.
For `CN1C(=O)CN=C(c2ccccc2)c2cc([N+](=O)[O-])ccc21` [nimetazepam], the “effect on p-tau aggregation (16-h net change of ThS fluorescence)” value ([1]; 6 µM p-tau) was “did not”.
For `CCN(CC)CCN1C(=O)CN=C(c2ccccc2F)c2cc(Cl)ccc21` [flurazepam], the “effect on p-tau aggregation (16-h net change of ThS fluorescence)” value ([1]; 6 µM p-tau) was “enhanced p-tau aggregation in a dose-dependent manner”.
In the case of `O=C1CN=C(c2ccccc2)c2cc([N+](=O)[O-])ccc2N1` [nitrazepam], the “effect on p-tau aggregation (16-h net change of ThS fluorescence)” value ([1]; 6 µM p-tau) is reported as “did not” and the “effect on p-tau cytotoxicity (cell death curve, LD50)” value (“effect on p-tau cytotoxicity” below) [2, 10] is reported as “did not alter the cytotoxicity of p-tau at all”.
In the case of `CN1C(=O)[C@@H](NC(=O)c2cc3ccccc3[nH]2)N=C(c2ccccc2)c2ccccc21` [devazepide], the “effect on p-tau aggregation (16-h net change of ThS fluorescence)” value ([1]; 6 µM p-tau) is reported as “enhanced p-tau aggregation in a dose-dependent manner” and the “effect on p-tau cytotoxicity” value [2] is reported as “decreasing LD50”.
In the case of `O=C1CN=C(c2ccccc2)c2cc(Cl)ccc2N1CC1CC1` [prazepam], the “effect on p-tau aggregation (16-h net change of ThS fluorescence)” value ([1]; 6 µM p-tau) is reported as “enhanced p-tau aggregation in a dose-dependent manner” and the “effect on p-tau cytotoxicity” value [2, 10] is reported as “decreasing LD50”.
In the case of `O=C(c1ccc(OCCN2CCCCC2)cc1)c1c(-c2ccc(O)cc2)sc2cc(O)ccc12` [Raloxifene, raloxifene hydrochloride], the “risk of mild cognitive impairment (MCI)” value ([5]; 3-year trial, 5386 participants, 120 mg daily) is given as “reduced risks of mild cognitive impairment (MCI)”, the “benefit for AD treatment” value ([5]; 12-month trial, 42 women with late-onset AD of mild to moderate severity) is given as “no significant benefits” and the EC50 ([1]; 6 µM p-tau, ThS fluorescence) is given as 31.2 µM. The “effect on p-tau aggregation” value ([1]; 50 µM compound) was “completely blocked p-tau aggregation”, the “aggregation of C/A or C/S mutant p-tau” value [6] was “effectively inhibited” and the EC50 ([2]; Homo sapiens, SH-SY5Y, read-out: EC50, concentration of compound to reduce p-tau cytotoxicity by 50%, SH-SY5Y, 0.8 µM p-tau) was 4.8 µM.
In the case of `NNc1nncc2ccccc12` [Hydralazine, hydralazine hydrochloride], the EC50 ([1]; 6 µM p-tau, ThS fluorescence) is reported as 21.8 µM and the p-tau cytotox [2] is reported as “No change”.
With `Nc1scc2c(C(=O)O)nn(-c3ccccc3)c(=O)c12` [compound 2] the “p-tau aggregation reduced to” value ([1]; 400 µM compound) was 57%, the “p-tau aggregation reduced to” value ([1]; 1 mM compound) was 46% and the “effect on p-tau aggregation” value [1, 9] was “moderate inhibition”. The AC50 [4] was 6.8 ± 0.4 µM.
For `CN1C(=O)CN=C(c2ccccc2)c2cc(Cl)ccc21` [diazepam], the “effect on p-tau aggregation (16-h net change of ThS fluorescence)” value ([1]; 6 µM p-tau) was “enhanced p-tau aggregation in a dose-dependent manner”.
